From US20040171691A1, “Propofol with cysteine” (Transform Pharmaceuticals, Inc., priority 2002, published 2004)

Test system: microorganisms
Test: Antimicrobial effectiveness, overall conclusion over the four USP test organisms
Type: cell-based
Conditions: after adventitious, extrinsic contamination
Text: Tables 2 through 5 compare the antimicrobial effectiveness of the cysteinate HCl formulation with that of Diprivan® and generic propofol formulation, as well as unpreserved Intralipid®.

`Cl.N[C@@H](CS)C(=O)O` [cysteine/cysteinate HCl, Cysteine HCl] was tested, and the “time for which significant growth of microorganisms is prevented” value was “at least 24 hours”.
